In US20130217760A1, “METHOD FOR ENHANCING THERAPEUTIC EFFECT OF ANTICANCER THERAPIES” (BOTAMEDI INC., priority 2012, published 2013):
Counter-ions that a name gives are not always drawn. Like-named read-outs stand apart in the source and are kept apart here.

What was measured:
[1] = system: adriamycin-induced cardiomyopathy
Procedure: The composition of the present invention was examined for suppression effects against adriamycin-induced cardiomyopathy.
A total of 25 male mice (33±5 g, four-week-old) were divided into four groups: three test groups of seven, and one control group of four. Adriamycin (tradename: Doxorubicin Hydrochloride; Sigma-Aldrich, Co, LLC; St. Louis, Mo., USA) in distilled water was intraperitoneally injected at a dose of 1.25 mg/kg once a week for six weeks in the adriamycin group. The other two experimental groups, low-dose and high-dose group, were orally administered with composition 4 at a dose of 32 mg/kg and 64 mg/kg, respectively, everyday for one week, and then intraperitoneally injected with adriamycin in distilled water at a dose of 1.25 mg/kg once a week for six weeks. The control group of 4 mice was injected once a week for six weeks with physiological saline. During the experiment, the mice were given access to food and water ad libitum.
The mice were generally anesthetized before and after the six-week experiment, and subjected to two-dimensional echocardiography using a 15-MHz transducer to measure left ventricular end-diastolic dimension (LVEDD) and left ventricular end-systolic dimension (LVESD), left ventricular end-diastolic posterior wall thickness (PW), and left ventricular end-systolic posterior wall thickness (PW). From these measurements, relative wall thickness (RWT), fraction shortening (FS), and left ventricular ejection fraction (LVEF) were calculated. The echocardiographic data are expressed as mean value±SD of five or higher independent measurements.

[2] = system: SKOV3 ovarian carcinoma cell line; experiment: Inhibition of cancer cell proliferation, MTT assay, SKOV3; assay type: cell-based; settings: SKOV3, 24 hrs incubation
Procedure: (§1) Ovarian […] carcinoma cell lines (SKOV3, A2780) were incubated in minimum essential medium [MEM] supplemented with 10% FBS, 100 units/ml antibiotic antimycotic, and 2.2 g/L sodium bicarbonate at 37° C. for 24 hrs in 96-well plates. The ovarian carcinoma cell lines were seeded at a density of 1×10^4 cells/well into 96-well plates and allowed to adhere to the bottom during incubation for 24 hrs. […] The cells in each well were treated with […] of an MTT reagent (1 mg/ml) for 4 hrs in a dark condition. After the medium was aspirated, the MTT fromazan thus formed was dissolved in […] of DMSO, and absorbance was measured at 540 nm using spectrophotometer.

[3] = system: A2780 ovarian carcinoma cell line; experiment: Inhibition of cancer cell proliferation, MTT assay, A2780; assay type: cell-based; settings: A2780, 24 hrs incubation
Procedure: as §1

[4] = system: Ovarian carcinoma cells (SKOV3); experiment: Apoptosis by PI staining / FACS, co-treatment with Cisplatin; assay type: cell-based; settings: Individual, 48 hrs
Procedure: Apoptotic effects were assessed using a PI staining method. Propidium iodide (PI) is a fluorescent molecule that can bind to DNA of dead cells to evaluate cell cycle and cell viability.
Ovarian carcinoma cells (SKOV3) were incubated at 37° C. for 24 hrs in minimum essential medium [MEM] supplemented with 10% FBS, 100 units/ml antibiotic antimycotic, and 2.2 g/L sodium bicarbonate in 96-well plates. The ovarian carcinoma cell line was seeded at a density of 1×10^4 cells/well into 96-well plates and allowed to adhere to the bottom during incubation for 24 hrs. […] Afterwards, the cells were washed with PBS, and detached with trypsin-EDTA, followed by centrifugation at 1,000 rpm for 10 min. The cells were fixed with 70% ethanol at 4° C. for 24 hrs. After removal of the ethanol, the cells were washed many times with PBS, suspended in PBS containing RNaseA, and reacted with a PI reagent for 10 min at room temperature in a dark condition.

[5] = system: ovarian carcinoma cell line SKOV3 tumors; experiment: SKOV3 ovarian carcinoma xenograft, tumor volume and weight; assay type: in vivo, Balb/c nu/nu mice
Procedure: The ovarian carcinoma cell line SKOV3 was detached from a culture dish using trypsin-EDTA, and diluted to a density of […] cells/150 in an RPMI medium supplemented with 10% FBS, followed by subcutaneous injection into the right flank of Balb/c nu/nu mice using a syringe. […] The control group was treated with PBS. During the experimental period, the tumor size, body weight and dietary intake of mice in each group was recorded three times per week.
After 4 weeks, the animals were sacrificed and blood was taken from the animals. Tumors were e.xcised from the animals and measured for size and weight.

[6] = Dietary intake (anorexia) in SKOV3 tumor-bearing mice; assay type: in vivo, Balb/c nu/nu mice; settings: for Diet Intake: Cisplatin group (cisplatin 3 mg/kg i.p.)
[7] = Adriamycin Group, Week 0 (Baseline)

Compound: COc1cccc2c1C(=O)c1c(O)c3c(c(O)c1C2=O)C[C@@](O)(C(=O)CO)C[C@@H]3O[C@H]1C[C@H](N)[C@H](O)[C@H](C)O1 [Adriamycin, Doxorubicin Hydrochloride]
- LVEDD [1, 7]: 5.7 ± 0.2 mm
- LVESD [1, 7]: 2.4 ± 0.3 mm
- PW [1, 7]: 1.6 ± 0.2 mm
- FS ([1]; Adriamycin Group, Week 6): 44.2 ± 3.2%
- LVEF ([1]; Adriamycin Group, Week 6): 70.3 ± 0.3%
- LVESD ([1]; Adriamycin Group, Week 6): 3.8 ± 0.3 mm
- PW ([1]; Adriamycin Group, Week 6): 1.4 ± 0.3 mm
- FS Δ(6 − 0) ([1]; Adriamycin Group, Δ(6 − 0)): 14.4 ± 1.5%
- LVEDD Δ(6 − 0) ([1]; Adriamycin Group, Δ(6 − 0)): 1.1 ± 0.1 mm
- LVEF Δ(6 − 0) ([1]; Adriamycin Group, Δ(6 − 0)): 15.2 ± 3.0%
- LVESD Δ(6 − 0) ([1]; Adriamycin Group, Δ(6 − 0)): 1.4 ± 0.0 mm
- PW Δ(6 − 0) ([1]; Adriamycin Group, Δ(6 − 0)): 0.2 ± 0.1 mm
- cardiomyopathy after 6 weeks ([1]; echocardiography after 6 weeks of study): cardiomyopathy with significant decrease in left ventricular posterior wall thickness (PW) and in fractional shortening (FS)

Compound: N.N.[Cl][Pt][Cl] [Cisplatin, cis-Diammineplatinum (II) dichloride]
- IC50 SKOV3 [2]: 12.3 mg/L
- IC50 A2780 [3]: 6.01 mg/L
- Apoptosis (%) ([4]; Cisplatin 3 μM): 3.0%
- Apoptosis (%) ([4]; Cisplatin 5 μM): 3.5%
- tumor size compared to control ([5]; 4 weeks administration): slightly reduced
- Tumor Weight after 4 Weeks ([5]; Cisplatin alone (3 mg/kg i.p.)): 1.7 gram
- Tumor Volume ([5]; Cisplatin alone (3 mg/kg i.p.), Week 1): 100 mm3
- Tumor Volume ([5]; Cisplatin alone (3 mg/kg i.p.), Week 2): 134 mm3
- Tumor Volume ([5]; Cisplatin alone (3 mg/kg i.p.), Week 3): 144 mm3
- Tumor Volume ([5]; Cisplatin alone (3 mg/kg i.p.), Week 4): 162 mm3
- Diet Intake ([6]; Week 0): 4.8 gram
- Diet Intake ([6]; Week 1): 4.6 gram
- Diet Intake ([6]; Week 2): 4.0 gram
- Diet Intake ([6]; Week 3): 3.7 gram
- Diet Intake ([6]; Week 4): 4.1 gram
- dietary intake compared to control group ([6]; during the experimental periods): decrease in dietary intake
